Patent US20250388544A1, “HETEROAROMATIC INHIBITORS OF ASTACIN PROTEINASES” (VIVORYON THERAPEUTICS N.V., priority 2019, published 2025)

Experiments:
Format in all cases: biochemical
hMeprin α = target: T1, hMeprin α (Homo sapiens, UniProt Q16819); test: Enzymatic assay, quenched peptide substrate cleavage, method A; conditions: geometric mean (geometric SD factor in parentheses), read-out: Meprin alpha IC50
T1 sequence (Q16819 66-746): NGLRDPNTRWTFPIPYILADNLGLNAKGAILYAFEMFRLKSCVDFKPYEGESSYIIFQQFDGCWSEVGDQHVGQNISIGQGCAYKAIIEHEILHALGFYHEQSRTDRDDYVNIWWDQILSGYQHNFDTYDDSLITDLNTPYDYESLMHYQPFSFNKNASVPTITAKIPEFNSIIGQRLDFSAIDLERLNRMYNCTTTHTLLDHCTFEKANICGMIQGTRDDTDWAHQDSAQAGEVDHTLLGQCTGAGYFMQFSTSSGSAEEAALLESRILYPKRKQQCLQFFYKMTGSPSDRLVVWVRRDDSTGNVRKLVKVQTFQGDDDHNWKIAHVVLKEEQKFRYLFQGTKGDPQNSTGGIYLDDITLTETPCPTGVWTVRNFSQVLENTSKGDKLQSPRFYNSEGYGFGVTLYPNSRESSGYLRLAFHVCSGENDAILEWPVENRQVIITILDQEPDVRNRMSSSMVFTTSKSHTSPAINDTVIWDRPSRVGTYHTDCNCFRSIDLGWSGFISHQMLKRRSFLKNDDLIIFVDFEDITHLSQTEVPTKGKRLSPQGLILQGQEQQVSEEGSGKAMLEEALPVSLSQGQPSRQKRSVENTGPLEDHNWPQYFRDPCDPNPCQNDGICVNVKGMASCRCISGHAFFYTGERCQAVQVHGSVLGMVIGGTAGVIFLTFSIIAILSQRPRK
Experimental: (§1) The determination of enzymatic activity was based on the cleavage of internally quenched peptide substrates. A typical assay of 250 μl total volume measured in black 96 well plates consisted of 100 μl buffer, 50 μl enzyme at a final concentration of 5e-8 M to 2e-10 M, 50 μl substrate (0.15 to 80 μM, in buffer, 0.5% DMSO) and 50 μl inhibitor solution (in buffer, 1% DMSO). In case of 125 μl assay volume (black 96 half area well plates) all volumes were cut in half. Enzymatic activity of ADAMs was measured in 384 well plates with 60 μl total assay volume consisting of 20 μl inhibitor, 20 μl buffer, 10 μl enzyme and 10 μl substrate.
(§2) Based on method B Ki^(app) values were determined using Morrison's equation. All measurements were performed using a fluorescence plate reader (FLUOSTAR OPTIMA, BMG Labtech) at 30° C. The kinetic parameters were determined at least in duplicates on separate days. The excitation/emission wavelength was 340/420 nm. The kinetic data was evaluated using GRAFIT software (version 7.0.3, Erithacus Software).

hMeprin β = target: T2, hMeprin β (Homo sapiens, UniProt Q16820); test: as above; conditions: geometric mean (geometric SD factor in parentheses), read-out: Meprin beta IC50
T2 sequence (Q16820 62-701): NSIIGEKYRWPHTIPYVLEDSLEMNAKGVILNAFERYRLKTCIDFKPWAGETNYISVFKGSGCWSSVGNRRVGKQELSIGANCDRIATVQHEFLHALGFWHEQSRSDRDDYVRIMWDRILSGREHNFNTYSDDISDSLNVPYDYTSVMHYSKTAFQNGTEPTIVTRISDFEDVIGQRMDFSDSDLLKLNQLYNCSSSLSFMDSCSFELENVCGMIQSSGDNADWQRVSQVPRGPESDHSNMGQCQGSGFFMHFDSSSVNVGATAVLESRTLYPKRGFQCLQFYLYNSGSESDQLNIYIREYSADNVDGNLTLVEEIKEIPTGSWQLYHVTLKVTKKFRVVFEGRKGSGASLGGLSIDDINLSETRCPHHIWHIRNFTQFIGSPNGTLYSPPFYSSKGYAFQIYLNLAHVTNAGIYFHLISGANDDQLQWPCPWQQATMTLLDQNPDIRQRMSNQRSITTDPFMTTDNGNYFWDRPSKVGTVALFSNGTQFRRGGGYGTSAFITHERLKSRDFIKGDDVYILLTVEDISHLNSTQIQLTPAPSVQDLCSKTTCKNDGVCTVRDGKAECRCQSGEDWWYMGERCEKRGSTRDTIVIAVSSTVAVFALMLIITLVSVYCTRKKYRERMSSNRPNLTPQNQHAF
Experimental: as §1, §2

hMMP 9 = target: T3, hMMP 9 (Homo sapiens, UniProt P14780); test: Residual enzyme activity of other metalloproteases; conditions: read-out: Residual enzyme activity MMP9; for remaining activity at 10 µM: 10 μM inhibitor; for remaining activity at 200 µM: 200 μM inhibitor
T3 construct: purchased R&D systems
T3 sequence (P14780 107-707 limits assumed): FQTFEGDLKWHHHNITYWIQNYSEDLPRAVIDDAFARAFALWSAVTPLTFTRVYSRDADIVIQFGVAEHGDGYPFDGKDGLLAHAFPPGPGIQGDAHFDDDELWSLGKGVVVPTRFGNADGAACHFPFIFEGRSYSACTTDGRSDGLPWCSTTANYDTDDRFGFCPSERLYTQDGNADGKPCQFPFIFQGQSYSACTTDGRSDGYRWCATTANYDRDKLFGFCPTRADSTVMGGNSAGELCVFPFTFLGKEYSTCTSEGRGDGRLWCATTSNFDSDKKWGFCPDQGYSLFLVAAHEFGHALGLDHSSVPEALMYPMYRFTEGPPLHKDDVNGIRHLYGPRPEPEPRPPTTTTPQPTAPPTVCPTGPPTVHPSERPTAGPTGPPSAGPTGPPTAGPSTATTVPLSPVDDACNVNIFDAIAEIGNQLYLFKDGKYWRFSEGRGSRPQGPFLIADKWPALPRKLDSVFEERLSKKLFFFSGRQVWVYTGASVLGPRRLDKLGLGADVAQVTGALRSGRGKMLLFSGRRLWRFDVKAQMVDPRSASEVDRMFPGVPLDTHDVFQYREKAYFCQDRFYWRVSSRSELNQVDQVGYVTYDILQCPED
Experimental: as §1
MMPs were activated prior to measurement by APMA (p-aminophenylmercuric acetate) treatment according to manufacturer's instructions (R&D systems).

hADAM 10 = target: T4, hADAM 10 (Homo sapiens, UniProt O14672); test: Residual enzyme activity of other metalloproteases; conditions: read-out: Residual enzyme activity ADAM10; for remaining activity at 10 µM: 10 μM inhibitor; for remaining activity at 200 µM: 200 μM inhibitor
T4 construct: purchased R&D systems
T4 sequence (O14672 214-748): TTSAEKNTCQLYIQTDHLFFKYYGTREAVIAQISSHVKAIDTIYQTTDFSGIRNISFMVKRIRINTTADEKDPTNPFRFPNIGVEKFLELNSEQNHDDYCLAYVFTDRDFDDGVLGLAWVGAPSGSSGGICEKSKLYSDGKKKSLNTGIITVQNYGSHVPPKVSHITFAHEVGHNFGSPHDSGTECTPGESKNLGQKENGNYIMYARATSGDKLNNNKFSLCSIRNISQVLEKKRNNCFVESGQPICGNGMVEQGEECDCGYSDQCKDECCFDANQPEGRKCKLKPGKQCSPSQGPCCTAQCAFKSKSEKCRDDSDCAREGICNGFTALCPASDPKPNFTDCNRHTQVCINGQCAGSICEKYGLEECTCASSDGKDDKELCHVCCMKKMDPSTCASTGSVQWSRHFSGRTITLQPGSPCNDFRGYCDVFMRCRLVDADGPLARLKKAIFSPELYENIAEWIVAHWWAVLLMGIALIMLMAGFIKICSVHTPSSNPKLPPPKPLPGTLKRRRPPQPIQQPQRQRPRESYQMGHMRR
Experimental: as §1

hADAM 17 = target: T5, hADAM 17 (Homo sapiens, UniProt P78536); test: Residual enzyme activity of other metalloproteases; conditions: read-out: Residual enzyme activity ADAM17; for remaining activity at 10 µM: 10 μM inhibitor; for remaining activity at 200 µM: 200 μM inhibitor
T5 construct: purchased R&D systems
T5 sequence (P78536 215-824): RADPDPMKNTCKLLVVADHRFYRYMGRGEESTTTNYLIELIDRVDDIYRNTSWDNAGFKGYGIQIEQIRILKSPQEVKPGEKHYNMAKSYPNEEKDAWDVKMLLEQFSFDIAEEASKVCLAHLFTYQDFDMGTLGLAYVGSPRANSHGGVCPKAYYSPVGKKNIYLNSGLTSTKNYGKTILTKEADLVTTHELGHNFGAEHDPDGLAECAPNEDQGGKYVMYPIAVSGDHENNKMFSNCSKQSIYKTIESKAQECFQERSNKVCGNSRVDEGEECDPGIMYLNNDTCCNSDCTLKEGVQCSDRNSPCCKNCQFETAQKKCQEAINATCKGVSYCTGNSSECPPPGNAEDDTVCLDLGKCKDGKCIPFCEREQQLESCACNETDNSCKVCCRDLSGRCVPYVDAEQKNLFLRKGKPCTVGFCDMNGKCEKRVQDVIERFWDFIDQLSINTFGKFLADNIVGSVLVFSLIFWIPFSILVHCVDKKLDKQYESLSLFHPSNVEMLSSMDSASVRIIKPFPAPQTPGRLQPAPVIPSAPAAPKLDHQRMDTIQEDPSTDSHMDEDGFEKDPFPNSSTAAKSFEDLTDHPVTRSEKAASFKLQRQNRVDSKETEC
Experimental: as §1

Structure (SMILES)	IC50 (hMeprin α) [nM]	IC50 (hMeprin β) [nM]	remaining activity at 10 µM (hMMP 9) [%]	remaining activity at 200 µM (hMMP 9) [%]	remaining activity at 10 µM (hADAM 10) [%]	remaining activity at 200 µM (hADAM 10) [%]	remaining activity at 10 µM (hADAM 17) [%]	remaining activity at 200 µM (hADAM 17) [%]
COc1ccc(-c2n[nH]c(-c3ccccc3)c2CC(=O)NO)cc1OC [Example 49, 2-[3-(3,4-Dimethoxyphenyl)-5-phenyl-1H-pyrazol-4-yl]ethanehydroxamic acid]			90	44	87	13	65	6
O=C(Cn1c(-c2ccccc2)cc2ccccc21)NO [Example 25, 2-(2-Phenylindol-1-yl)ethanehydroxamic acid]	72	1140	90	53	89	68	88	56
O=C(Cc1c(-c2cccc(C(=O)O)c2)n[nH]c1-c1ccc(Cl)c(O)c1F)NO [Example 63, 3-[5-(4-Chloro-2-fluoro-3-hydroxy-phenyl)-4-[2-(hydroxyamino)-2-oxo-ethyl]-1H-pyrazol-3-yl]benzoic acid]			94	71	90	74	99	91
O=C(Cc1c(-c2cc(F)c(O)c(Cl)c2)n[nH]c1-c1ccccc1)NO [Example 54, 2-[3-(3-Chloro-5-fluoro-4-hydroxy-phenyl)-5-phenyl-1H-pyrazol-4-yl]ethanehydroxamic acid]			86	39	104	61	68	5
O=C(Cc1c(-c2ccccc2)nn(Cc2ccc(Cl)c(O)c2F)c1-c1ccccc1)NO [Example 42, 2-[1-(4-Chloro-2-fluoro-3-hydroxybenzyl)-3,5-diphenyl-1H-pyrazol-4-yl]ethanehydroxamic acid]			70	14	85	34	72	14
O=C(Cc1c(-c2ccccc2)nn(Cc2ccc3c(c2)OCO3)c1-c1ccccc1)NO [Example 43, 2-[1-(1,3-Benzodioxol-5-ylmethyl)-3,5-diphenyl-1H-pyrazol-4-yl]ethanehydroxamic acid]			74	60	69	39	21	4
COc1cccc(-c2n[nH]c(-c3ccccc3)c2CC(=O)NO)c1 [Example 47, 2-[3-(3-Methoxyphenyl)-5-phenyl-1H-pyrazol-4-yl]ethanehydroxamic acid]			80	33	68	8	52	6
O=C(Cc1c(-c2ccc3c(c2)OCO3)n[nH]c1-c1ccccc1)NO [Example 50, 2-[3-(1,3-Benzodioxol-5-yl)-5-phenyl-1H-pyrazol-4-yl]ethanehydroxamic acid]			72	16	59	5	51	5

Results, then the molecule that gave them:

IC50 (hMeprin α) [nM]	IC50 (hMeprin β) [nM]	remaining activity at 10 µM (hMMP 9) [%]	remaining activity at 200 µM (hMMP 9) [%]	remaining activity at 10 µM (hADAM 10) [%]	remaining activity at 200 µM (hADAM 10) [%]	remaining activity at 10 µM (hADAM 17) [%]	remaining activity at 200 µM (hADAM 17) [%]	Structure (SMILES)
108	8070	93	65	66	12	76	27	O=C(CCc1c(-c2ccccc2)n[nH]c1-c1ccccc1)NO [Example 3, 3-(3,5-Diphenyl-1H-pyrazol-4-yl)propanehydroxamic acid]
69	8710	99	54	89	83	90	56	O=C(Cn1c(-c2ccccc2)nnc1-c1ccccc1)NO [Example 7, 2-(3,5-Diphenyl-1,2,4-triazol-4-yl)ethanehydroxamic acid]
4	204	81	27	73	23	61	7	O=C(Cc1c(-c2ccccc2)n[nH]c1-c1ccccc1)NO [Example 1, 2-(3,5-Diphenyl-1H-pyrazol-4-yl)ethanehydroxamic acid]
34	4320	92	1	83	29	82	25	O=C(Cn1c(-c2ccccc2)ccc1-c1ccccc1)NO [Example 9, 2-(2,5-Diphenylpyrrol-1-yl)ethanehydroxamic acid]
		83	36	92	66	84	25	O=C(Cc1c(-c2ccccc2)nn(Cc2cccc(C(=O)O)c2)c1-c1ccccc1)NO [Example 41, 3-[[4-[2-(Hydroxyamino)-2-oxo-ethyl]-3,5-diphenyl-1H-pyrazol-1-yl]methyl]benzoic acid]
		80	30	91	43	67	9	O=C(Cc1c(-c2ccccc2)nn(Cc2ccc(C(=O)O)cc2)c1-c1ccccc1)NO [Example 40, 4-[[4-(2-(Hydroxyamino)-2-oxo-ethyl]-3,5-diphenyl-1H-pyrazol-1-yl]methyl]benzoic acid]
